Experimental data from US20230322767A1, “ARYL SUBSTITUTED PYRROLO-PYRIDINONES AND THERAPEUTIC USES THEREOF” (Bayer Aktiengesellschaft, priority 2020, published 2023).
Where two headings read alike, the source gives them in different places.

Experiments:
Type in all cases: biochemical
[1] = molecular target: wild-type Epidermal Growth Factor Receptor (EGFR) (Homo sapiens (Human), UniProt P00533); experiment: WT-EGFR Kinase Assay (TR-FRET, 2 mM ATP)
Summary of the method: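 TR-FRET read-out of biotinylated peptide phosphorylation, taken as the 665/622 nm ratio after EDTA stop and 1 h detection at 22° C. Kinase: GST fusion of human EGFR aa R669–A1210, given a 15 min compound pre-binding step; reaction run at 2 mM ATP.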

[2] = molecular target: CSNK1D (Homo sapiens (Human), UniProt P48730); experiment: CSNK1D Assay (ADP-Glo, 1 μM ATP); details: median, read-out: CSNK1D IC50 [mol/l] (median)
Summary of the method: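 Enzyme preincubated with compound 15 min at 22° C in 50 mM HEPES pH 7.5 buffer with 10 mM MgCl2, 1 mM DTT; kinase reaction run at 1 μM ATP with biotinylated peptide substrate. ADP formed was detected by ADP-Glo luminescence as the measure of activity.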

[3] = molecular target: CSNK1A1 (Homo sapiens (Human), UniProt P48729); experiment: CSNK1A1 Assay 2 (ADP-Glo, 1 μM ATP); details: median, read-out: CSNK1A1 Assay 2 IC50 [mol/l] (median)
Summary of the method: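 ADP-Glo luminescence, taken as ADP formed, reports activity against biotinylated phospho-peptide substrate biotin-Ahx-KRRRAL-pS-VASLPGL at 1 μM ATP.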

[4] = EGFR Wildtyp 2 mM ATP IC50 [mol/l] (median), median or individual measurements
[5] = read-out: EGFR Wildtyp 2 mM ATP IC50 [mol/l] (median), median or individual measurements

Chain of CSNK1D (P48730 whole entry): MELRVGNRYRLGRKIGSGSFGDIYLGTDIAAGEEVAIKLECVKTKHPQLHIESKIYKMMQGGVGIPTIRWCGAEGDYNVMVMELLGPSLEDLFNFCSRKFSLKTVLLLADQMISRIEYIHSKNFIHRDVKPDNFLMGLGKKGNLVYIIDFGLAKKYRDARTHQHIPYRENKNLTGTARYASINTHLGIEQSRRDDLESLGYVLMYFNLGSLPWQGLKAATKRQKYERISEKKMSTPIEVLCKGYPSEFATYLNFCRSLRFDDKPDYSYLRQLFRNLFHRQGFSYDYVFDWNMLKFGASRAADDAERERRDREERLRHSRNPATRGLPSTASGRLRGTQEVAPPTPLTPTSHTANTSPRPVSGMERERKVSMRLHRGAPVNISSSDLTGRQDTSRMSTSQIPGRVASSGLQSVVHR
Chain of CSNK1A1 (P48729 whole entry): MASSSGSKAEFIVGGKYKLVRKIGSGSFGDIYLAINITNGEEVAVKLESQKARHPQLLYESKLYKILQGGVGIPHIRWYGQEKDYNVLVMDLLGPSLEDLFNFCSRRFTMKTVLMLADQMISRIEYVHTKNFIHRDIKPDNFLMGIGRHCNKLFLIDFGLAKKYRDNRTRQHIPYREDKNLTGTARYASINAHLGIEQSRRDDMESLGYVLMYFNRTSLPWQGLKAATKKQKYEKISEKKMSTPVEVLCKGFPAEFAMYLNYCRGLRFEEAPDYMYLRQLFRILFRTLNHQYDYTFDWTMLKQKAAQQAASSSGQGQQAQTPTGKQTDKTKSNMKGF
Chain of wild-type Epidermal Growth Factor Receptor (EGFR) (P00533 669-1210): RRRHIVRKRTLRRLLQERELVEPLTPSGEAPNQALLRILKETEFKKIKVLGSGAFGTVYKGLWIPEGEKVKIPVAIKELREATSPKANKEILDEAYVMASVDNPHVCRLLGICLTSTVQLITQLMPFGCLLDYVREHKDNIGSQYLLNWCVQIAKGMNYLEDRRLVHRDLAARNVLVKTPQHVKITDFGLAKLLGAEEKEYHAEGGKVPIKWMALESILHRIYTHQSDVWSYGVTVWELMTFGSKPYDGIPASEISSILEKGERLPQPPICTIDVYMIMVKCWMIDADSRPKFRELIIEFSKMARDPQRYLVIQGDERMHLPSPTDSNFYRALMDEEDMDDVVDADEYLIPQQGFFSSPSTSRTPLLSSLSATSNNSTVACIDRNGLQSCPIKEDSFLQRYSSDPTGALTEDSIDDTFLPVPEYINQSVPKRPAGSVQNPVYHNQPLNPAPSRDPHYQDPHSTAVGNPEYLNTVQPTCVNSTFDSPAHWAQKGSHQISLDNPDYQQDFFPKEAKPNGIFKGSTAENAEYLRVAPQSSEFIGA

`CC(C(=O)Nc1cc(-c2[nH]c3c(c2-c2ccc(F)cc2)C(=O)NC(C)(C)C3)ccn1)c1ccc(F)cc1` (racemic) [Example 94, 2-(4-fluorophenyl)-N-{4-[3-(4-fluorophenyl)-6,6-dimethyl-4-oxo-4,5,6,7-tetrahydro-1H-pyrrolo[3,2-c]pyridin-2-yl]pyridin-2-yl}propanamide] was tested, and the IC50 [1, 4] was > 20000 nM, the IC50 [2] was 3.2 nM and the IC50 [3] was 3 nM.

In the case of `CC(C(=O)Nc1cc(-c2[nH]c3ccn(C)c(=O)c3c2-c2ccccc2Cl)ccn1)c1ccc(F)cc1` (racemic) [Example 112, N-{4-[3-(2-chlorophenyl)-5-methyl-4-oxo-4,5-dihydro-1H-pyrrolo[3,2-c]pyridin-2-yl]pyridin-2-yl}-2-(4-fluorophenyl)propanamide], the IC50 [1, 4] is reported as > 20000 nM, the IC50 [2] is reported as 14 nM and the IC50 [3] is reported as 23 nM.

`CC1(C)Cc2[nH]c(-c3ccnc(NC(=O)Cc4ccc(F)cc4)c3)c(-c3ccc(Cl)cc3)c2C(=O)N1` [Example 90, N-{4-[3-(4-chlorophenyl)-6,6-dimethyl-4-oxo-4,5,6,7-tetrahydro-1H-pyrrolo[3,2-c]pyridin-2-yl]pyridin-2-yl}-2-(4-fluorophenyl)acetamide] was tested, and the IC50 [1, 5] was > 20000 nM, the IC50 [2] was 4.1 nM and the IC50 [3] was 3.2 nM.

With `O=C(Nc1cc(-c2[nH]c3ccn(C4CC4)c(=O)c3c2-c2ccc(F)cc2)ccn1)C(CC(F)F)c1ccc(F)cc1` (single isomer, unassigned; (+)) [Example 136, (+)-N-{4-[5-cyclopropyl-3-(4-fluorophenyl)-4-oxo-4,5-dihydro-1H-pyrrolo[3,2-c]pyridin-2-yl]pyridin-2-yl}-4,4-difluoro-2-(4-fluorophenyl)butanamide] the IC50 [1, 5] was > 20000 nM, the IC50 [2] was 2.1 nM and the IC50 [3] was 3.1 nM.

`CC(C(=O)Nc1cc(-c2[nH]c3ccn(C)c(=O)c3c2-c2ccccc2O)ccn1)c1ccc(F)cc1` (racemic) [Example 124, 2-(4-fluorophenyl)-N-{4-[3-(2-hydroxyphenyl)-5-methyl-4-oxo-4,5-dihydro-1H-pyrrolo[3,2-c]pyridin-2-yl]pyridin-2-yl}propanamide] was tested, and the IC50 [1, 4] was > 20000 nM, the IC50 [2] was 11 nM and the IC50 [3] was 5.6 nM.

In the case of `Cn1cc(Cl)c2[nH]c(-c3ccnc(NC(=O)Cc4ccc(F)cc4)c3)c(-c3ccccc3)c2c1=O` [Example 79, N-[4-(7-chloro-5-methyl-4-oxo-3-phenyl-4,5-dihydro-1H-pyrrolo[3,2-c]pyridin-2-yl)pyridin-2-yl]-2-(4-fluorophenyl)acetamide], the IC50 [1, 5] is reported as > 20000 nM, the IC50 [2] is reported as 4.8 nM and the IC50 [3] is reported as 5.1 nM.

With `O=C(Nc1cc(-c2[nH]c3ccn(C4CC4)c(=O)c3c2-c2ccccc2)ccn1)C(CC(F)F)c1ccc(F)cc1` (single isomer, unassigned) [Example 157, (2R or S)—N-[4-(5-cyclopropyl-4-oxo-3-phenyl-4,5-dihydro-1H-pyrrolo[3,2-c]pyridin-2-yl)pyridin-2-yl]-4,4-difluoro-2-(4-fluorophenyl)butanamide] the IC50 [1, 4] was > 20000 nM, the IC50 [2] was 2.3 nM and the IC50 [3] was 2 nM.

In the case of `CC(C(=O)Nc1cc(-c2[nH]c3c(c2-c2ccccc2)C(=O)N(C)CC3)ccn1)c1ccncc1` (racemic) [Example 153, (Rac)-N-[4-(5-methyl-4-oxo-3-phenyl-4,5,6,7-tetrahydro-1H-pyrrolo[3,2-c]pyridin-2-yl)pyridin-2-yl]-2-(pyridin-4-yl)propanamide], the IC50 [1, 4] is reported as > 20000 nM, the IC50 [2] is reported as 2.4 nM and the IC50 [3] is reported as 2 nM.

In the case of `CC(C(=O)Nc1cc(-c2[nH]c3ccn(C)c(=O)c3c2-c2cccc(O)c2)ccn1)c1ccc(F)cc1` (racemic) [Example 113, 2-(4-fluorophenyl)-N-{4-[3-(3-hydroxyphenyl)-5-methyl-4-oxo-4,5-dihydro-1H-pyrrolo[3,2-c]pyridin-2-yl]pyridin-2-yl}propanamide], the IC50 [1, 4] is reported as > 20000 nM, the IC50 [2] is reported as 33 nM and the IC50 [3] is reported as 32 nM.

`CC(C(=O)Nc1cc(-c2[nH]c3c(c2-c2ccc(F)cc2)C(=O)NC(C)(C)C3)ccn1)c1ccc(F)cc1` (single isomer, unassigned) [Example 96, 2-(4-fluorophenyl)-N-{4-[3-(4-fluorophenyl)-6,6-dimethyl-4-oxo-4,5,6,7-tetrahydro-1H-pyrrolo[3,2-c]pyridin-2-yl]pyridin-2-yl}propanamide] was tested, and the IC50 [1, 5] was > 20000 nM, the IC50 [2] was 2 nM and the IC50 [3] was 1.3 nM.

`Cn1ccc2[nH]c(-c3ccnc(NC(=O)C(CC(F)F)c4ccc(F)cc4)c3)c(-c3ccc(F)cc3)c2c1=O` (single isomer, unassigned; (-)) [Example 108, (−)-4,4-difluoro-2-(4-fluorophenyl)-N-{4-[3-(4-fluorophenyl)-5-methyl-4-oxo-4,5-dihydro-1H-pyrrolo[3,2-c]pyridin-2-yl]pyridin-2-yl}butanamide] showed an IC50 [1, 4] of 663 nM, an IC50 [2] of 9.4 nM and an IC50 [3] of 15 nM.

`O=C(Nc1cc(-c2[nH]c3c(Cl)cn(C4CC4)c(=O)c3c2-c2ccc(F)cc2)ccn1)C(CC(F)F)c1ccc(F)cc1` (racemic) [Example 161, (2RS)—N-{4-[7-chloro-5-cyclopropyl-3-(4-fluorophenyl)-4-oxo-4,5-dihydro-1H-pyrrolo[3,2-c]pyridin-2-yl]pyridin-2-yl}-4,4-difluoro-2-(4-fluorophenyl)butanamide] was tested, and the IC50 [1, 4] was > 20000 nM, the IC50 [2] was 11 nM and the IC50 [3] was 20 nM.

With `O=C(Nc1cc(-c2[nH]c3ccn(C4CC4)c(=O)c3c2-c2ccccc2)ccn1)C(CC(F)F)c1ccc(F)cc1` (single isomer, unassigned) [Example 158, (2R or S)—N-[4-(5-cyclopropyl-4-oxo-3-phenyl-4,5-dihydro-1H-pyrrolo[3,2-c]pyridin-2-yl)pyridin-2-yl]-4,4-difluoro-2-(4-fluorophenyl)butanamide] the IC50 [1, 5] was > 20000 nM, the IC50 [2] was 5.1 nM and the IC50 [3] was 3.2 nM.

For `CN1CCc2[nH]c(-c3ccnc(NC(=O)C(CC(F)F)c4ccc(F)cc4)c3)c(-c3cc(F)ccc3C#N)c2C1=O` (racemic) [Example 128, N-{4-[3-(2-cyano-5-fluorophenyl)-5-methyl-4-oxo-4,5,6,7-tetrahydro-1H-pyrrolo[3,2-c]pyridin-2-yl]pyridin-2-yl}-4,4-difluoro-2-(4-fluorophenyl)butanamide], the IC50 [1, 4] was > 20000 nM, the IC50 [2] was 12 nM and the IC50 [3] was 14 nM.

`COCCN(C)C(=O)c1ccc(CC(=O)Nc2cc(-c3[nH]c4ccn(C)c(=O)c4c3-c3ccc(F)cc3)ccn2)cc1` [Example 143, 4-[2-({4-[3-(4-fluorophenyl)-5-methyl-4-oxo-4,5-dihydro-1H-pyrrolo[3,2-c]pyridin-2-yl]pyridin-2-yl}amino)-2-oxoethyl]-N-(2-methoxyethyl)-N-methylbenzamide] was tested, and the IC50 [1, 5] was > 20000 nM, the IC50 [2] was 2.7 nM and the IC50 [3] was 4 nM.

With `Cc1ccc(-c2c(-c3ccnc(NC(=O)C(C)c4ccc(F)cc4)c3)[nH]c3ccn(C)c(=O)c23)s1` (racemic) [Example 125, 2-(4-fluorophenyl)-N-{4-[5-methyl-3-(5-methyl-2-thienyl)-4-oxo-4,5-dihydro-1H-pyrrolo[3,2-c]pyridin-2-yl]pyridin-2-yl}propanamide] the IC50 [1, 4] was > 1630 nM, the IC50 [1, 5] was > 1630 nM and the IC50 [2] was 5.9 nM. The IC50 [3] was 3.3 nM.

`Cn1ccc2[nH]c(-c3ccnc(NC(=O)Cc4ccc(F)cc4)c3)c(-c3ccccn3)c2c1=O` [Example 146, 2-(4-fluorophenyl)-N-{4-[5-methyl-4-oxo-3-(pyridin-2-yl)-4,5-dihydro-1H-pyrrolo[3,2-c]pyridin-2-yl]pyridin-2-yl}acetamide] was tested, and the IC50 [1, 5] was > 20000 nM, the IC50 [2] was 4.4 nM and the IC50 [3] was 3.3 nM.

With `O=C1NCCc2[nH]c(-c3ccnc(NC(=O)C(CC(F)F)c4ccc(F)cc4)c3)c(-c3ccccc3)c21` (racemic) [Example 75, 4,4-difluoro-2-(4-fluorophenyl)-N-[4-(4-oxo-3-phenyl-4,5,6,7-tetrahydro-1H-pyrrolo[3,2-c]pyridin-2-yl)pyridin-2-yl]butanamide] the IC50 [1, 4] was > 20000 nM, the IC50 [2] was 4.5 nM and the IC50 [3] was 2.7 nM.

`CC(C(=O)Nc1cc(-c2[nH]c3ccn(C)c(=O)c3c2-c2cc(F)cc(F)c2)ccn1)c1ccc(F)cc1` (racemic) [Example 121, N-{4-[3-(3,5-difluorophenyl)-5-methyl-4-oxo-4,5-dihydro-1H-pyrrolo[3,2-c]pyridin-2-yl]pyridin-2-yl}-2-(4-fluorophenyl)propanamide] was tested, and the IC50 [1, 4] was > 5710 nM, the IC50 [1, 5] was > 5710 nM and the IC50 [2] was 13 nM. For the same compound, the IC50 [3] was 7 nM.

In the case of `CC(C(=O)Nc1cc(-c2[nH]c3ccn(C)c(=O)c3c2-c2ccccc2)ccn1)c1ccc(F)cc1` (single isomer, unassigned) [Example 104, 2-(4-fluorophenyl)-N-[4-(5-methyl-4-oxo-3-phenyl-4,5-dihydro-1H-pyrrolo[3,2-c]pyridin-2-yl)pyridin-2-yl]propanamide], the IC50 [1, 4] is reported as > 20000 nM, the IC50 [2] is reported as 5.1 nM and the IC50 [3] is reported as 7 nM.

In the case of `Cn1cc(CC2CC2)c2[nH]c(-c3ccnc(NC(=O)C(CC(F)F)c4ccc(F)cc4)c3)c(-c3ccc(F)cc3)c2c1=O` (racemic) [Example 65, N-{4-[7-(cyclopropylmethyl)-3-(4-fluorophenyl)-5-methyl-4-oxo-4,5-dihydro-1H-pyrrolo[3,2-c]pyridin-2-yl]pyridin-2-yl}-4,4-difluoro-2-(4-fluorophenyl)butanamide], the IC50 [1, 4] is reported as > 20000 nM, the IC50 [2] is reported as 6.6 nM and the IC50 [3] is reported as 11 nM.
